Experimental findings from PMC8228597, “Asperflaloids A and B from Aspergillus flavipes DZ-3, an Endophytic Fungus of Eucommia ulmoides Oliver” (Molecules, 2021) are described below.

The nature of assay [1]: DPPH radical scavenging test (antioxidant activity). The following applies: for pIC50: − means no activity. The procedure:
The DPPH scavenging was assayed according to the reported method. The DPPH radical scavenging test was performed in 96-well microplates. Samples (compounds 1–12) were added to 180 μL (150 μmol/L) DPPH solution in EtOH at 20 μL solutions of different concentrations between 10 and 500 μM. After 30 min of light avoidance, absorbance at 517 nm using a microplate reader (Tecan Trading AG, Männedorf, Switzerland) was measured and the percentage of activity was calculated. All assays were performed in three replicates, and vitamin C was used as a positive control.

The target of the next assay is α-glucosidase (Saccharomyces cerevisiae, UniProt P53341). Put plainly: α-glucosidase inhibitory assay. It is filed as biochemical. Conditions: − means no activity. How it is done:
The α-glucosidase inhibitory effect was assessed as described in our recently published paper.

pIC50: −log10 of the molar value.

One may read the pIC50 as the IC50 on a negative log10 scale, so that one unit is a factor of ten. Lower therefore signals a large IC50.

α-glucosidase, sequence (P53341 whole entry): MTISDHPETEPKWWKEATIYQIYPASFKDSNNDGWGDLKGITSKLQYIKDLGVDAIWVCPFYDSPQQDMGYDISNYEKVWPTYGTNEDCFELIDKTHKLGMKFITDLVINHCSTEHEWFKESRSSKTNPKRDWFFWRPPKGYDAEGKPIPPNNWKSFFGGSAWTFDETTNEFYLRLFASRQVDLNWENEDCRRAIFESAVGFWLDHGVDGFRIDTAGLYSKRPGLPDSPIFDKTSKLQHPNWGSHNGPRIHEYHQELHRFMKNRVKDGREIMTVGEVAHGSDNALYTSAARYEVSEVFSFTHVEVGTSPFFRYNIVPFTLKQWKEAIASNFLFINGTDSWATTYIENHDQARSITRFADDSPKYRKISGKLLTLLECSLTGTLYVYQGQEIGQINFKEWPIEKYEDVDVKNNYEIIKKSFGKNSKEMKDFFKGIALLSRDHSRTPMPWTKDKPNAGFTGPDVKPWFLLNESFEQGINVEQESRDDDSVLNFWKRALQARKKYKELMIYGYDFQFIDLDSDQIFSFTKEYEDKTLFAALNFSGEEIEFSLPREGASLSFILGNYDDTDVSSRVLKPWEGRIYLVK

As for `O=c1[nH]c(Cc2ccc(O)cc2)nc2ccccc12` [Compound 3, 2-(4-hydroxybenzyl)quinazolin-4(3H)-one], in assay [1], the “Antioxidant % Inhibition (500 μM)” value is less than 50% and the pIC50 was less than 3.30.
As for `O=C1O[C@H]([C@@H](O)CO)C(O)=C1O` [Vitamin C, vitamin C, reference compound], in assay [1], the “Antioxidant % Inhibition (500 μM)” value worked out at 96.4% and the pIC50 is 4.57.
As to `C=CC(C)(C)[C@]12C=C(OC)C(=O)N3/C(=C/c4c[nH]cn4)C(=O)N[C@@]31N(OC)c1ccccc12` [Compound 5, oxaline], in assay [1], the “Antioxidant % Inhibition (500 μM)” value is given as less than 50% and the negative logarithm of the IC50 (pIC50) is less than 3.30.
With phenylacetic acid [Compound 9], in assay [1], the “Antioxidant % Inhibition (500 μM)” value is less than 50% and the negative logarithm of the IC50 (pIC50) is less than 3.30. This compound also showed a negative logarithm of the IC50 (pIC50) on α-glucosidase of less than 3.00.
Take `O=C(O)c1ccccc1-n1ncnc1Cc1ccc(O)cc1` [Compound 4, penipanoid A]: in assay [1], the “Antioxidant % Inhibition (500 μM)” value is recorded as less than 50% and the pIC50 was less than 3.30.
For the compound `O=C(O)Cc1ccc(O)c(O)c1` [Compound 7, 3,4-dihydroxybenzeneacetic acid], in assay [1], the “Antioxidant % Inhibition (500 μM)” value amounted to 96.6% and the pIC50 was 4.84.
In the same order, the values of `CC(=O)Nc1ccccc1C(=O)OC[C@@H](O)CO` [Compound 2, Asperflaloid B] are less than 50% and less than 3.30.
`N#CCc1ccc(O)cc1` [Compound 12, 4-hydroxyphenylacetonitrile]: in assay [1], the “Antioxidant % Inhibition (500 μM)” value is less than 50% and the pIC50 is less than 3.30.
For `NC(=O)Cc1ccc(O)cc1` [Compound 10, 4-hydroxybenzeneacetamide], in assay [1], the “Antioxidant % Inhibition (500 μM)” value amounted to 64.9% and the pIC50 is 3.47.
As for `COC(=O)Cc1ccc(O)cc1` [Compound 11, 4-hydroxy phenylacetic acid methyl ester], in assay [1], the “Antioxidant % Inhibition (500 μM)” value was less than 50% and the pIC50 was less than 3.30.
Regarding `O=C(O)[C@H](Cc1ccc(O)cc1)n1cnc2ccccc2c1=O` [Compound 1, Asperflaloid A], in assay [1], the “Antioxidant % Inhibition (500 μM)” value is less than 50% and the pIC50 is less than 3.30.
For the compound `COC(=O)Cc1ccc(O)c(O)c1` [Compound 8, 3,4-dihydroxyphenylacetic acid methyl ester], in assay [1], the “Antioxidant % Inhibition (500 μM)” value is 92% and the pIC50 was 4.57.
In the same order, the values of `C/C(=C/C(=O)NCCCC(=O)O)CCO` [Compound 6, fuscoatramide] are less than 50% and less than 3.30.
